Source: US12319681B2, “Tripartite androgen receptor eliminators, methods and uses thereof” (SPG Therapeutics, Inc., priority 2017, dated 2025)
Read-outs that look alike come from different tables or passages of the source.

Columns and labels:
[1] = Solubility screening tests in 8 solvent systems; assay type: physicochemical
Procedure: Solubility screening tests were performed in 8 solvent systems: (1) Transcutol: Ethanol: Isopropyl myristate (IPM) 2:3:5 (v:v); (2) Transcutol: Ethanol 3:7 (v:v); (3) Ethanol: Propylene Glycol 1:1 (v:v); (4) Ethanol:H2O 7:3 (v:v); (5) IPM; (6) Ethanol:Tween 80: Cetyl Alcohol 90:5:5 (w:w); (7) CCT: Tween 80: Cetyl Alcohol 90:5:5 (w:w); and (8) CCT: Isopropanol 1:1 (v: v). […] One objective was to identify solvent systems for solution formulation at targeted API concentration of 1% by weight. Another objective was to identify solvents that are potentially good penetration enhancers and yet clinically viable. Since cetyl alcohol is solid, the solvent systems with them were prepared in weight ratios.

[2] = tested on: normal Human Adult Primary Epidermal Keratinocyte cell line; settings: 24 h
Procedure: For the Keratinocyte assay, normal Human Adult Primary Epidermal Keratinocyte cell line (ATCC PCS-200-011) was maintained in EPIUFE® Medium, with 60 μM calcium (Thermo MEPISOOCA) supplemented with Human Keratinocyte Growth Supplement, 100 U/mL penicillin, and 100 μg/mL streptomycin at 37° C. with 5% C02. For experiments, cells were seeded at 70% confluence per well in 100 μL of medium in 96-well plates. […] After 16 hours, medium was removed and replaced with dosing medium.
A 5α-Androstan-17β-ol-3-one (DHT) stock solution was prepared at 1,000× in ethanol. […] Dosing medium was prepared at the time of treatment by serial diluting stock solution into medium. Ethanol concentrations in media never exceeded 0.1%. […] Negative control wells contained 100 μL medium/well with 1 μL of ethanol/mL of medium and an appropriate amount of DMSO. Each plate also contained 1.0 nM DHT with an ARE or without an ARE as a positive control. Cells were incubated 24 hours at 37° C. without CO2.
To assess for cell viability, cells were first visually examined under a phase-contrast microscope to record cell confluence, morphological changes, and presence of drug crystallization as well as to observe signs of cytotoxity such as, e.g., detachment, vacuolization, membrane degradation, or lack of phase brightness. After microscopic inspection, a Trypan Blue exclusion assay was performed to assess cell viability and cell number for each well. Each well was washed with 0.5 mL volume of PBS. 30 µL of Trypan Blue was added to each well for 5-10 minutes. Total cell number and total viable cell number will be counted from 1 number of fields per well, in triplicate.

[3] = Human Skin Penetration Assays (Franz-cell, HTS station); assay type: in vitro ADME; settings: 8 hours of exposure
Procedure: To examine the penetration ability of SPG-003 formulation, two different assays were conducted. The SPG-003 formulation was prepared by adding SPG-003 (final concentration 1.0% by weight) to a mixture comprising 30% denatured alcohol. 49% IPM, 20% Transcutol and sonicaing this mixture until the compound was dissolved.
Human cadaver skin tissue was purchased from a tissue bank in the U.S. Two lots of the dermatomed skin tissue were used. Donor demographics: tissue 08033 (average thickness: 397 μm): […], […], […], and anatomical site=abdomen; tissue 08696 (average thickness; 1,040 μm): […], […], […], and anatomical site=abdomen. The thickness was measured using a digital snap gage. Duplicate for each donor (N=2). The tissue was received in dry ice packaging. It was stored at −20° C. until use.
After passing initial visual inspection, barrier integrity of the skin tissue was evaluated using transepidermal electrical resistance measurement (TEER measurement). […] Prior to the skin absorption and penetration study, electrical resistance value for each lot of human skin tissue was evaluated. […] Transepidermal electrical resistance value (TEER measurement, Z value) was measured. […] It was determined that the threshold TEER value was 6.0 KOhms for donor 08033 and 10 KOhms for donor 08696. […]
The data collection time point was 8 hours. […] The extracts were collected and ready for analysis. […]

androgen receptor (AR) = androgen receptor (AR) (Homo sapiens, UniProt P10275); experiment: MDA-kb2 Assay with 0.1 nM DHT (Example 13); assay type: cell-based
Procedure: To assess ARE-mediated inhibition, an AR luciferase assay was performed. After washing cells with 1×PBS, 20 μL lysis buffer (25 mM Tris/phosphate, 4 mM EGTA, 1% Triton, 10% glycerol, 2 mM DTT) was added per well, incubated for 5 minutes with gentle shaking and store at −80° C. On the day of assay, the plates were thawed to ambient temperature and 80 μL of assay buffer (25 mM glycylglycine, 15 mM MgCl2. 5 mM ATP, 0.1 mg/ml BSA) was added to each well. Plates are then processed on a microplate reader (POLARstar Omega) by injecting 100 μL of 1 mM D-luciferin per well, followed by chemiluminescence measurement of 3 seconds at onset of injection. Luciferase activity was determined, measured, and normalized to Relative Light Units (RLU). AR reporter gene activity reduction values were calculated as follows: AR reporter gene activity=1−(average signal (treatment group)/average signal (treatment group without drug).
To determine efficacy of a compound, a MDA-kb2 assay was performed as described in Example 10. The cells were treated with compounds for 24 hours prior to measurements of reporter gene activity. […] AR luciferase assay results were analyzed using GraphPad Prism using a four-parameter logistic curve equation. Bottom constraints were set at 1 (level of uninduced control.)

androgen receptor (AR), sequence (P10275 whole entry): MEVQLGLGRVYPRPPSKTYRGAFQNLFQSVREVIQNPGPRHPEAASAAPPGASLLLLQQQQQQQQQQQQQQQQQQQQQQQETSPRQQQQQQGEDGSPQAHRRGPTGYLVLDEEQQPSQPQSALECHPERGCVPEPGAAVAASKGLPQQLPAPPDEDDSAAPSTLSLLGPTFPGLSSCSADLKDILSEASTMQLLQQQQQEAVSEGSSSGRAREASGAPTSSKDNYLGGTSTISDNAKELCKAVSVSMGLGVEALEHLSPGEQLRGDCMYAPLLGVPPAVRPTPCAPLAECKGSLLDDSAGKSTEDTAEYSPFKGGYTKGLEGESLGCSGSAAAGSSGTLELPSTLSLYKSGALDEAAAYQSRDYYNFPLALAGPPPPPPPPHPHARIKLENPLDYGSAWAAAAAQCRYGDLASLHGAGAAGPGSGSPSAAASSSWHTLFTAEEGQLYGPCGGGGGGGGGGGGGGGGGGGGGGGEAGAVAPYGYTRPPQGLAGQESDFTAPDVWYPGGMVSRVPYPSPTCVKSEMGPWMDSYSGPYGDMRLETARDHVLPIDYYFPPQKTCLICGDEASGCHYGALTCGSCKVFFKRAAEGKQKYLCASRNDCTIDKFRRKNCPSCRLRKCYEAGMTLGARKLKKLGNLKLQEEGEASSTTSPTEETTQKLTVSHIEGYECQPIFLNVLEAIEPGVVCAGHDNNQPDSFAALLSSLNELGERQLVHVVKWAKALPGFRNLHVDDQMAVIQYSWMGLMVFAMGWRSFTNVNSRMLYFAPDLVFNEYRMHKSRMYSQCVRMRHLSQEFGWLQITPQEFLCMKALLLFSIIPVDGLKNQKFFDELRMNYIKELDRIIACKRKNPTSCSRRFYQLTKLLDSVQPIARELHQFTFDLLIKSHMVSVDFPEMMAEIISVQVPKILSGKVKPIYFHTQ

With `CC12CCC(=O)C=C1C[C@@H](SC(=O)CC13CC4CC(CC(C4)C1)C3)C1C2CCC2(C)C1CC[C@@]21CCC(=O)O1` (stereo partly drawn) [SPG-003] the solubility ([1]; solvent system (1) Transcutol: Ethanol: Isopropyl myristate (IPM) 2:3:5 (v:v), target 1% by weight) was “good solubility”, the solubility ([1]; solvent system (2) Transcutol: Ethanol 3:7 (v:v), target 1% by weight) was “good solubility” and the solubility ([1]; solvent system (3) Ethanol: Propylene Glycol 1:1 (v:v), after extensive sonication) was “not soluble”. For the same compound, the solubility ([1]; solvent system (4) Ethanol:H2O 7:3 (v:v), after extensive sonication) was “not soluble”, the solubility ([1]; solvent system (5) IPM, after extensive sonication) was “not soluble” and the solubility ([1]; solvent system (6) Ethanol:Tween 80: Cetyl Alcohol 90:5:5 (w:w)) was “good solubility”. For the same compound, the solubility ([1]; solvent system (7) CCT: Tween 80: Cetyl Alcohol 90:5:5 (w:w), after extensive sonication) was “not soluble”, the solubility ([1]; solvent system (8) CCT: Isopropanol 1:1 (v: v)) was “good solubility” and the “Cell Viability” value ([2]; 0.1 μM) was 93%. For the same compound, the “Cell Viability” value ([2]; 1 μM) was 93%, the “Cell Viability” value ([2]; 3 μM) was 94% and the “Cell Viability” value ([2]; 10 μM) was 93%. For the same compound, the “skin penetration (in words)” value [3] was “limited amount”, the “skin retention in epidermis and dermis (in words)” value [3] was “good amount” and the IC50 (androgen receptor (AR); MDA-kb2, 0.1 nM DHT, 24 hours) was 789 nM. For the same compound, the IC90 (androgen receptor (AR); MDA-kb2, 0.1 nM DHT, 24 hours) was 2710 nM, the “Maximum Inhibition” value (androgen receptor (AR); MDA-kb2, 0.1 nM DHT, 24 hours) was 95% and the “dose-dependent inhibition of AR reporter gene activity (in words)” value (androgen receptor (AR); MDA-kb2, reduced DHT levels (0.1 nM)) was “dose-dependent inhibition”.
